Assay results: patent publication US10258598B2, “Compounds for use in the prevention or treatment of cancer” ([…], priority 2014, dated 2019)

Columns and labels:
[1] = system: male Wistar rats (Charles River); experiment: Longevity study: survival of rats under lifelong treatment; assay type: in vivo, rat; conditions: for month of age in which the first animal died: saline: 9th month; for lifespan versus saline-treated peers: both doses of each substance (FIGS. 5-8), Kaplan-Meier
Protocol: Experiments were carried out on male Wistar rats (Charles River) weighing 250-350 g received from the breeding colony of Semmelweis University. The animals were kept in a 12-hour light-dark cycle and under condition of controlled temperature (22±2° C.) and relative humidity (55±5%). Room temperature and relative humidity was checked daily. The rats were maintained on standard laboratory chow and tap water ad libitum. All procedures conformed to the European Convention for the protection of vertebrate animals used for experimental and other scientific purposes. The study was approved by the Animal Ethics Committee of Semmelweis University, Budapest (permission number: 1810/003/2004)
The longevity study was performed on 200 male rats received from the breeding colony of the Semmelweis University. The rats were born at the end of February of 2010. After 2-month acclimation period the rats were divided randomly into 5 even groups. The longevity study started at the beginning of May 2010. Animals were observed until their natural deaths. The data in this study represent the changes observed until Oct. 31, 2012, since in the saline-treated group the last animal died on Oct. 31, 2012. As will be shown later a few rats in the enhancer-treated groups were still alive on Nov. 1, 2012.
During the longevity study 5 rats were housed together in polycarbonate cages (height: 18 cm; wide: 42 cm; length: 44 cm) with a stainless steel on the top. Cage bedding was renewed 3 times a week (Monday, Wednesday and Friday). Bodyweight was measured once every month. The treatment started at the end of the second month of their age. […] To avoid the mixing of the groups and individuals, saline-treated rats were signed blue from 1 to 40; D-treated rats were signed green from 1 to 80 (1-40: rats treated with 0.1 mg/kg and 41-80: rats treated with 0.001 mg/kg); B-treated rats were signed black from 1 to 80 (1-40: rats treated with 0.05 mg/kg and 41-80: rats treated with 0.0001 mg/kg).
Significance in the performance between the groups in the shuttle box was evaluated by multi-factor analysis of variance (ANOVA). Significance regarding the span of time from tumor manifestation until death in rats and regarding aging related changes in bodyweight treated chronically with the enhancer substances was analyzed by One-way ANOVA. Statistical analysis of survival rate and tumor manifestation was performed by the Kaplan-Meier method.

[2] = system: UW-228-2 cell line; experiment: MTT proliferation assay, UW-228-2 medulloblastoma cells; assay type: cell-based, human; conditions: 72 hours; for proliferation of cultured cells, monotherapy: nine concentrations between 10^-14 and 10^-6 M, MTT
Protocol: Human medulloblastoma cell line, Daoy was purchased from ATCCC, UW-228 was obtained from the courtesy of Professor Silber (University of Washington, Seattle, Wash., USA).
Daoy and UW-228-2 cell lines were maintained in culture medium (each 500 ml Minimum Essential Medium Eagle, Alpha Modification (M8042, Sigma, St Louis, USA) with 50 ml FCS (Gibco), 40 mg Gentamicin (Sandoz), 5 ml sodium-pyruvate (S8636, Sigma, St Louis, USA), 5 ml non-essential-amino acid solution (M7145, Sigma, St Louis, USA), 10 ml L-glutamin (Sigma, St Louis, USA) at 37° C. in humified 5% CO2.
In each well 3×10^3 Daoy or UW-228-2 cells were seeded in 96-well plates (Sarstedt), solved in 100 µl of its own medium with 10% FCS. 24 hours after seeding, cells were treated for 72 hours by drugs solved in further 100 μl medium. First, both cell lines were treated by (−)-BPAP and (−)-deprenil in monotherapy to determine its dose-effect curves in concentration of 10^−6, 10^−7, […], 10^−9, 10^−10, 10^−11, 10^−12, 10^−13 and 10^−14 M. In combined treatment 10^−3, 3.3×10^−4, […] and 3.7×10^−5 M of temozolomide (Schering Plough, USA) or 0.04, 0.2, 1, 5 μM of Cisplatin (Ebewe Pharma, Austria) or 0.04, 0.2, 1, 5 μM of etoposide (Ebewe Pharma, Austria) or 10^−7, 10^−6, 10^−5 and 10^−4 μM (UW228-2) or 0.001, 0.005, 0.025 and 0.125 μM (Daoy) of Vincristin (Richter Gedeon, Hungary) were applied in monotherapy or combined with 10^−13 or 10^−8 M of (−)-BPAP or (−)-deprenil.
Cell proliferation was evaluated by MTT (3-(4,5-Dimethylthiazol-2-yl)-2,5-diphenyltetrazolium bromide) assay (M5655, Sigma) after 72-hour treatment by the method described in manufacturer's protocol.

[3] = target: T1, MAO-A (Rattus norvegicus, UniProt P21396); conditions: Knoll et al., 1999; cited from earlier work
T1 construct: host or cells: animal dosed in mg/kg (in vivo)
T1 sequence (P21396 1-526): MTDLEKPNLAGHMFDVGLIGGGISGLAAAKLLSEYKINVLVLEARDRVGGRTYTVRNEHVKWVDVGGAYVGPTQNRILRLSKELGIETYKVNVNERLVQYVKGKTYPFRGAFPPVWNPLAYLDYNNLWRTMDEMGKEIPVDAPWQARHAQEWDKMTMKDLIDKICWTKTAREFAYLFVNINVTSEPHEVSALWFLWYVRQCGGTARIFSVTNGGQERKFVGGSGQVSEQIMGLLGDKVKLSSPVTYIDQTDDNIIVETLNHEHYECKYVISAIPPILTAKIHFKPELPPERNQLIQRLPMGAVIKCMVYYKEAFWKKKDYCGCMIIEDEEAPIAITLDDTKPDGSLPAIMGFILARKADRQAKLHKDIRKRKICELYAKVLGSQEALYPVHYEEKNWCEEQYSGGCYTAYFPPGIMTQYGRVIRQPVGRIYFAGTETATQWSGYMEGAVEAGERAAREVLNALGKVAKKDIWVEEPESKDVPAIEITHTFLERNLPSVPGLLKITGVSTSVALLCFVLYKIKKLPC

[4] = system: noradrenergic neurons; conditions: Knoll et al., 1999, cited from earlier work
[5] = system: enhancer-sensitive neurons of isolated rat brain stem; conditions: optimal concentration for specific enhancer effect, 3-min collection period; review Knoll, 2005; cited from earlier work
[6] = system: Wistar-Logan strain of rats; conditions: cited from earlier work
[7] = system: mammary tumors; conditions: ThyagaRajan et al. 1998; cited from earlier work

For CCCN[C@H](CCC)Cc1cc2ccccc2o1 [(−)-BPAP, (R)-1-(benzofuran-2-yl)-2-propylamino pentane], the “month of age in which the first animal died” value ([1]; 0.0001 mg/kg s.c. 3 times a week, N=40) was 16 month, the “rats remaining alive to the end of the 32nd month of age” value ([1]; 0.0001 mg/kg, N=40, P<0.05 vs saline) was “one and One” and the “month of age in which the first animal died” value ([1]; 0.05 mg/kg s.c. 3 times a week, N=40) was 14 month. The “lifespan versus saline-treated peers” value [1] was “significantly longer”, the “effectiveness of tumor-cell proliferation inhibiting agents in combination” value ([2]; 10^-13 or 10^-8 M combined with temozolomide, Cisplatin, etoposide or Vincristin) was “did not change the effectiveness” and the “proliferation of cultured cells, monotherapy” value (“proliferation … monotherapy” for short) [2] was “did not inhibit the proliferation”. For the same compound, the “proliferation … monotherapy” value ([2]; listed as BPAP) was “In none of the applied concentrations”, the “dose that blocks the activity of MAO-A” value [3] was “higher than 2 mg/kg” and the “concentration range of the non-specific enhancer effect relative to the specific one” value ([4]; Knoll, Miklya, Knoll B, 2002) was 10 million times higher concentration range. The “concentration range of the specific enhancer effect” value [4] was “femto/picomolar concentration range” and the “released amount of labeled transmitter ([3H]-norepinephrine, [3H]-dopamine or [3H]-serotonin) versus absence of substance” value [5] was “significantly higher”.
With C#CCN(C)[C@H](C)Cc1ccccc1 [(−)-Deprenyl, (R)—N-methyl-N-(1-phenylpropan-2-yl)prop-2-yn-1-amine] the “month of age in which the first animal died” value ([1]; 0.001 mg/kg s.c. 3 times a week, N=40) was 13 month, the “month of age in which the last animal died” value ([1]; 0.001 mg/kg, N=40) was 32 month and the “rats remaining alive to the end of the 32nd month of age” value ([1]; 0.001 mg/kg, N=40, P>0.05 vs saline) was “none”. For the same compound, the “month of age in which the first animal died” value ([1]; 0.1 mg/kg s.c. 3 times a week from 2 months of age, N=40) was 11 month, the “lifespan versus saline-treated peers” value [1] was “did not prolong the lifespan of rats significantly” and the “proliferation … monotherapy” value ([2]; listed as (−)-deprenyl) was “did not inhibit the proliferation”. The “proliferation … monotherapy” value ([2]; listed as Deprenyl) was “In none of the applied concentrations”, the “rats that lived longer than the maximum lifespan ever observed in the strain” value ([6]; out of the 50 treated HP rats) was 17 rats and the lifespan ([6]; sexually high performing (HP) rats treated for life, n=50, saline HP 151.24±1.36) was 185.30±1.96 weeks. For the same compound, the “lifespan versus saline-treated peers” value ([6]; sexually low performing (LP) rats treated for life, n=49, saline LP 134.58±2.29 weeks) was “lived significantly longer than their saline treated peers”, the “dose inhibiting the development of mammary tumors” value [7] was ≥ 0.25 mg/kg body weight and the “released amount of labeled transmitter ([3H]-norepinephrine, [3H]-dopamine or [3H]-serotonin) versus absence of substance” value [5] was “significantly higher”.
